Biological target: T1, PPARγ (Homo sapiens, UniProt P37231)
T1 sequence (P37231 1-505): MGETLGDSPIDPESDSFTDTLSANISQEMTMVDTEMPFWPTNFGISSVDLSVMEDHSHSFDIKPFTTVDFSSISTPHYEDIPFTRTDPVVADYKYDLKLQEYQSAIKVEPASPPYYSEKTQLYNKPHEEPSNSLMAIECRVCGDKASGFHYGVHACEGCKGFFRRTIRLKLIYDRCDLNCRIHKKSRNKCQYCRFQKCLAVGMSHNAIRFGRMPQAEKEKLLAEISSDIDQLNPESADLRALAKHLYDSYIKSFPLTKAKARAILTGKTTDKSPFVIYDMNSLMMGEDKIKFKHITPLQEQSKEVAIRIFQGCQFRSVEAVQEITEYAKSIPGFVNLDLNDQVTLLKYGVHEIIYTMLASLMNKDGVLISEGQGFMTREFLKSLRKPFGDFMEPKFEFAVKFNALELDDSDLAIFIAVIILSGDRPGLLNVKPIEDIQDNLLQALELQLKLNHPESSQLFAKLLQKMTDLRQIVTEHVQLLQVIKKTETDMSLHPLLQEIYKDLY
Test: FP-based PPARγ ligand screening assay
Format: binding

- IC50: 18.4 µM
SMILES: O=C(/C=C/C=C/c1ccc2c(c1)OCO2)N1CCCCC1 [Piperine]
